The IC50 is the concentration that gives 50% inhibition. A lower IC50 goes with greater potency.

In this test the target is human PDE4B1 (Homo sapiens (Human), UniProt Q07343). The experiment in a line: TR-FRET assay using the LANCE Ultra cAMP kit to determine the activity of hPDE4B1. The test is classed as biochemical. The following applies: IC50 inhibition of PDE4B, mean. The procedure, abridged:
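Recombinant human PDE4B1 (Sf9-expressed, 0.96 U) incubated with compound and 500 nM cAMP in 50 mM Tris-HCl, 50 mM MgCl2, 5 mM DTT, pH 8.5, 30 min at room temperature. Residual cAMP read by TR-FRET (665/620 nm ratio) after IBMX stop. IC50 from ten-concentration curves as % inhibition of control.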
For orientation: Time-resolved FRET reads energy transfer from a long-lived donor to a nearby acceptor.

human PDE4B1, sequence (Q07343 whole entry): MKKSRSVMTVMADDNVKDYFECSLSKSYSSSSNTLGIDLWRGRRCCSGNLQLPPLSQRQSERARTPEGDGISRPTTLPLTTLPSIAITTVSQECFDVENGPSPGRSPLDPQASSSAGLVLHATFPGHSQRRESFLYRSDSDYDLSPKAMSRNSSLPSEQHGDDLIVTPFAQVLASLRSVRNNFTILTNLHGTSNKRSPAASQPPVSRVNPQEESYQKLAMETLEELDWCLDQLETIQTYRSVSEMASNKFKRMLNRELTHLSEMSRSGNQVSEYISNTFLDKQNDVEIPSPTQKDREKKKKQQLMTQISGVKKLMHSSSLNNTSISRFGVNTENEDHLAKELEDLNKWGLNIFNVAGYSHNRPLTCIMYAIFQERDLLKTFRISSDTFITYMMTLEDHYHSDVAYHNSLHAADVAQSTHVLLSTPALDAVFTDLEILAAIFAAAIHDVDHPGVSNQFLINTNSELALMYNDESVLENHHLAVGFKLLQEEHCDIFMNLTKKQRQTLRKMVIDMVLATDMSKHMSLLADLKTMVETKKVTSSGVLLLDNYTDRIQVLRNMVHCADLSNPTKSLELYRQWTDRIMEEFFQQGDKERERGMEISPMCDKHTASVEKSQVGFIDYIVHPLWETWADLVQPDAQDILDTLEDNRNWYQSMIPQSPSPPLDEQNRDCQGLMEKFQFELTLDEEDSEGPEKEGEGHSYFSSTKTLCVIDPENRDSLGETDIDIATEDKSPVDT

For `COc1ccnc(-c2cnc(N3CC4(CC4)c4ccc(C(=O)N5CCNC(=O)C5)cc43)nc2)c1` [Compound 244, 4-[1-[5-(4-Methoxy-pyridin-2-yl)-pyrimidin-2-yl]-spiro[1,2-dihydro-indole-3,1′-cyclopropane]-6-carbonyl]-piperazin-2-one], the half-maximal inhibitory concentration (IC50) was less than 0.1 µM.
Molecule `CN(CCO)C(=O)c1ccc2c(c1)N(c1ncc(-c3cc(N(C)C)ccn3)cn1)CC21CC1` [Compound 272, 1-[5-(4-Dimethylamino-pyridin-2-yl)-pyrimidin-2-yl]-N-(2-hydroxy-ethyl)-N-methyl-spiro[1,2-dihydro-indole-3,1′-cyclopropane]-6-carboxylic acid amide] showed an IC50 of less than 0.1 µM.
Take `COc1cnnc(-c2cnc(N3CC4(CC4)c4ccc(C(=O)N(C)CCO)cc43)nc2)c1` [Compound 340, N-(2-Hydroxy-ethyl)-1-[5-(5-methoxy-pyridazin-3-yl)-pyrimidin-2-yl]-N-methyl-spiro[1,2-dihydro-indole-3,1′-cyclopropane]-6-carboxylic acid amide]: the IC50 was less than 0.1 µM.
`O=C(c1ccc2c(c1)N(c1ncc(-c3ccccc3F)cn1)CC21CC1)N1CCO[C@H](CO)C1` [Compound 354, [1-[5-(2-Fluorophenyl)-pyrimidin-2-yl]-spiro[1,2-dihydro-indole-3,1′-cyclopropane]-6-yl]-[(2S)-2-(hydroxymethyl)-morpholin-4-yl]-methanone] yielded an IC50 of less than 0.1 µM.
With `Cc1cccc(-c2cnc(N3CC4(CC4)c4ccc(C(=O)N5C[C@@H]6C[C@H]5CN6)cc43)nc2)n1` [Compound 305, [(1S,4S)-2,5-Diazabicyclo[2.2.1]heptan-2-yl]-[1-[5-(6-methyl-pyridin-2-yl)-pyrimidin-2-yl]-spiro[1,2-dihydro-indole-3,1′-cyclopropane]-6-yl]-methanone] the figure was less than 0.1 µM; with `COc1ccnc(-c2cnc(N3CC4(CC4)c4ccc(C(=O)N(C)CC(N)=O)cc43)nc2)c1` [Compound 321, N-(Carbamoyl-methyl)-1-[5-(4-methoxy-pyridin-2-yl)-pyrimidin-2-yl]-N-methyl-spiro[1,2-dihydro-indole-3,1′-cyclopropane]-6-carboxylic acid amide], less than 0.1 µM; with `O=C(c1ccc2c(c1)N(c1ncc(-c3ccccc3)cn1)CC21CC1)N1C[C@H]2C[C@@H]1CN2` [Compound 248, [(1R,4R)-2,5-Diazabicyclo[2.2.1]heptan-2-yl]-[1-(5-phenyl-pyrimidin-2-yl)-spiro[1,2-dihydro-indole-3,1′-cyclopropane]-6-yl]-methanone], 0.1 to 1 µM.
With `CCc1cccc(-c2cnc(N3CC4(CC4)c4ccc(C(=O)N(C)CCO)cc43)nc2)n1` [Compound 268, 1-[5-(6-Ethyl-pyridin-2-yl)-pyrimidin-2-yl]-N-(2-hydroxy-ethyl)-N-methyl-spiro[1,2-dihydro-indole-3,1′-cyclopropane]-6-carboxylic acid amide] the figure was less than 0.1 µM; with `COc1cc(OC)nc(-c2cnc(N3CC4(CC4)c4ccc(C(=O)N(C)CCO)cc43)nc2)c1` [Compound 328, 1-[5-(4,6-Dimethoxy-pyridin-2-yl)-pyrimidin-2-yl]-N-(2-hydroxy-ethyl)-N-methyl-spiro[1,2-dihydro-indole-3,1′-cyclopropane]-6-carboxylic acid amide], less than 0.1 µM; with `Cc1cccc(-c2cnc(N3CC4(CC4)c4ccc(C(=O)N(C)C)cc43)nc2)n1` [Compound 303, N,N-Dimethyl-1-[5-(6-methyl-pyridin-2-yl)-pyrimidin-2-yl]-spiro[1,2-dihydro-indole-3,1′-cyclopropane]-6-carboxylic acid amide], less than 0.1 µM.
As to `O=C(c1ccc2c(c1)N(c1ncc(-c3ccccc3F)cn1)CC21CC1)N1CCC[C@H](CO)C1` [Compound 317, [1-[5-(2-Fluorophenyl)-pyrimidin-2-yl]-spiro[1,2-dihydro-indole-3,1′-cyclopropane]-6-yl]-[(3S)-3-(hydroxymethyl)-piperidin-1-yl]-methanone], the IC50 was less than 0.1 µM.
Molecule `CN(CCO)C(=O)c1ccc2c(c1)N(c1ncc(-c3cccc(C4CC4)n3)cn1)CC21CC1` [Compound 269, 1-[5-(6-Cyclopropyl-pyridin-2-yl)-pyrimidin-2-yl]-N-(2-hydroxy-ethyl)-N-methyl-spiro[1,2-dihydro-indole-3,1′-cyclopropane]-6-carboxylic acid amide] yielded an IC50 of less than 0.1 µM.
In turn, `COc1cc(C)nc(-c2cnc(N3CC4(CC4)c4ccc(C(=O)N(C)CCO)cc43)nc2)c1` [Compound 282, N-(2-Hydroxy-ethyl)-1-[5-(4-methoxy--methyl-pyridin-2-yl)-pyrimidin-2-yl]-N-methyl-spiro[1,2-dihydro-indole-3,1′-cyclopropane]-6-carboxylic acid amide] showed an IC50 of less than 0.1 µM.
In the case of `CN(CCO)C(=O)c1ccc2c(c1)N(c1ncc(-c3cccc(C[S+](C)[O-])c3)cn1)CC21CC1` (stereo not drawn) [Compound 342, N-(2-Hydroxy-ethyl)-N-methyl-1-[5-[3-[(methylsulfinyl)-methyl]-phenyl]-pyrimidin-2-yl]-spiro[1,2-dihydro-indole-3,1′-cyclopropane]-6-carboxylic acid amide], the IC50 is less than 0.1 µM.
In turn, `CCc1ccnc(-c2cnc(N3CC4(CC4)c4ccc(C(=O)N5C[C@@H]6C[C@H]5CN6)cc43)nc2)c1` [Compound 298, [(1S,4S)-2,5-Diazabicyclo[2.2.1]heptan-2-yl]-[1-[5-(4-ethyl-pyridin-2-yl)-pyrimidin-2-yl]-spiro[1,2-dihydro-indole-3,1′-cyclopropane]-6-yl]-methanone] came in with an IC50 of less than 0.1 µM.
The molecule `CN(CCO)C(=O)c1ccc2c(c1)N(c1ncc(-c3cc(CO)cs3)cn1)CC21CC1` [Compound 347, N-(2-Hydroxy-ethyl)-1-[5-[4-(hydroxymethyl)-thiophen-2-yl]-pyrimidin-2-yl]-N-methyl-spiro[1,2-dihydro-indole-3,1′-cyclopropane]-6-carboxylic acid amide] came in with an IC50 of less than 0.1 µM.
With `COc1ccnc(-c2cnc(N3CC4(CC4)c4ccc(C(=O)N5CC[C@@H](N)C5)cc43)nc2)c1` [Compound 330, [(3R)-3-Amino-pyrrolidin-1-yl]-[1-[5-(4-methoxy-pyridin-2-yl)-pyrimidin-2-yl]-spiro[1,2-dihydro-indole-3,1′-cyclopropane]-6-yl]-methanone] the figure was less than 0.1 µM.
Molecule `CN(CCO)C(=O)c1ccc2c(c1)N(c1ncc(-c3cccc(F)c3F)cn1)CC21CC1` [Compound 225, 1-[5-(2,3-Difluoro-phenyl)-pyrimidin-2-yl]-N-(2-hydroxy-ethyl)-N-methyl-spiro[1,2-dihydro-indole-3,1′-cyclopropane]-6-carboxylic acid amide] gave an IC50 of less than 0.1 µM.
Turning to `O=C(c1ccc2c(c1)N(c1ncc(-c3ccccc3F)cn1)CC21CC1)N(CCO)C1CC1` [Compound 278, N-Cyclopropyl-1-[5-(2-fluorophenyl)-pyrimidin-2-yl]-N-(2-hydroxy-ethyl]-spiro[1,2-dihydro-indole-3,1′-cyclopropane]-6-carboxylic acid amide], the 50% inhibitory concentration (IC50) was less than 0.1 µM.
With `Cc1cc(N)cc(-c2cnc(N3CC4(CC4)c4ccc(C(=O)N(C)CCO)cc43)nc2)n1` [Compound 261, 1-[5-(4-Amino-6-methyl-pyridin-2-yl)-pyrimidin-2-yl]-N-(2-hydroxy-ethyl)-N-methyl-spiro[1,2-dihydro-indole-3,1′-cyclopropane]-6-carboxylic acid amide] the figure was less than 0.1 µM.
The value for `Cc1ccnc(-c2cnc(N3CC4(CC4)c4ccc(C(=O)N(C)CC(N)=O)cc43)nc2)c1` [Compound 300, N-(Carbamoyl-methyl)-N-methyl-1-[5-(4-methyl-pyridin-2-yl)-pyrimidin-2-yl]-spiro[1,2-dihydro-indole-3,1′-cyclopropane]-6-carboxylic acid amide] was less than 0.1 µM; that for `CN(CCO)C(=O)c1ccc2c(c1)N(c1ncc(-c3cccnn3)cn1)CC21CC1` [Compound 262, N-(2-Hydorxy-ethyl)-N-methyl-1-(5-pyridazin-3-yl-pyrimidin-2-yl)-spiro[1,2-dihydro-indole-3,1′-cyclopropane]-6-carboxylic acid amide] was less than 0.1 µM.
In turn, `O=C(c1ccc2c(c1)N(c1ncc(-c3cc(C4CC4)ccn3)cn1)CC21CC1)N1CCC[C@@H](CO)C1` [Compound 336, [1-[5-(4-Cyclopropyl-pyridin-2-yl)-pyrimidin-2-yl]-spiro[1,2-dihydro-indole-3,1′-cyclopropane]-6-yl]-[(3R)-3-(hydroxymethyl)-piperidin-1-yl]-methanone] registered an IC50 of less than 0.1 µM.
`CN(CCO)C(=O)c1ccc2c(c1)N(c1ncc(-c3cc(N)ccn3)cn1)CC21CC1` [Compound 251, 1-[5-(4-Amino-pyridin-2-yl)-pyrimidin-2-yl]-N-(2-hydroxy-ethyl)-N-methyl-spiro[1,2-dihydro-indole-3,1′-cyclopropane]-6-carboxylic acid amide] had an IC50 of less than 0.1 µM.
With `CN(CCO)C(=O)c1ccc2c(c1)N(c1ncc(-c3cccc(S(C)(=O)=O)c3)cn1)CC21CC1` [Compound 277, N-(2-Hydroxy-ethyl)-N-methyl-1-[5-(3-methylsulfonyl-phenyl)-pyrimidin-2-yl]-spiro[1,2-dihydro-indole-3,1′-cyclopropane]-6-carboxylic acid amide] the figure was less than 0.1 µM.
As for `O=C(c1ccc2c(c1)N(c1ncc(-c3cc(NCC4CC4)ccn3)cn1)CC21CC1)N1CCOCC1` [Compound 295, [1-[5-[4-(Cyclopropyl-methylamino)-pyridin-2-yl]-pyrimidin-2-yl]-spiro[1,2-dihydro-indole-3,1′-cyclopropane]-6-yl]-morpholin-4-yl-methanone], the IC50 was less than 0.1 µM.
The value for `NC(=O)CN1CCN(C(=O)c2ccc3c(c2)N(c2ncc(-c4ccccc4F)cn2)CC32CC2)CC1` [Compound 236, 2-[4-[1-[5-(2-Fluorophenyl)-pyrimidin-2-yl]-spiro[1,2-dihydro-indole-3,1′-cyclopropane]-6-carbonyl]-piperazin-1-yl]-acetamide] was 0.1 to 1 µM.

The values above are taken from patent US10189854B2, “Substituted pyrimidine compounds” (Grünenthal GmbH, priority 2014, dated 2019).
